Experiment [1] has as its target T1, c-Met (Homo sapiens, UniProt P08581).
T1 construct: recombinant kinase domain of c-Met
In words: biochemical. Particulars: read-out: IC50 (nM) in c-Met enzyme assay.

The target of experiment [2] is T1, c-Met. Briefly: HTRF c-Met kinase assay; also radiometric kinase panel (Met activity -2 at […]). The experiment is classed as biochemical. Particulars: read-out: IC50 (nM) in c-Met enzyme assay.

Structures are written as SMILES.

T1 sequence (P08581 956-1390 limits assumed): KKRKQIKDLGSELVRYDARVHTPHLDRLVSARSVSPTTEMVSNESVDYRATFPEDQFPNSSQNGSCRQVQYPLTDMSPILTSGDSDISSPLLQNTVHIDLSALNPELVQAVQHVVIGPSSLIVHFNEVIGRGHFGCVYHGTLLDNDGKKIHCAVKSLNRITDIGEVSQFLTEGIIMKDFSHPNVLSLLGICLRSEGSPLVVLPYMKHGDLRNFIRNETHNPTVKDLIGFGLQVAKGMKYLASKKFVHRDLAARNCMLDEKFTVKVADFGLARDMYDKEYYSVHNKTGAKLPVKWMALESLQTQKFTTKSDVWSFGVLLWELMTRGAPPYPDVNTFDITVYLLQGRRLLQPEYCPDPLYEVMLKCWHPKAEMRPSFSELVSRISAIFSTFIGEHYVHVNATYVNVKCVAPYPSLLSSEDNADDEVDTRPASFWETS

As a reminder, the IC50 is the point on the concentration scale where inhibition reaches its midpoint. In the case of `Cn1cc(-c2cnc3nnn(CC4CNc5ncccc5O4)c3n2)c2ccccc21` (centres unmarked) [KRC-00509], on c-Met [1], the IC50 stood at 6.3 nM.

Consider `FC(F)(F)c1cc(-c2cnc3nnn(CC4CNc5ncccc5O4)c3n2)ccc1OCCN1CCOCC1` (centres unmarked) [KRC-00715], for which the IC50 on c-Met [2] is 9 nM.

The values are drawn from PMC4722623, “Novel c-Met inhibitor suppresses the growth of c-Met-addicted gastric cancer cells” (BMC Cancer, 2016).
